Assay results as given in publication PMC6514812, “[^18F]Fluoroethyltriazolyl Monocyclam Derivatives as Imaging Probes for the Chemokine Receptor CXCR4” (Molecules, 2019).
Read-outs that look alike come from different tables or passages of the source. Each block holds one compound with its values, some of them ahead of it.

Legend:
PC3-CXCR4 cells [1] = experiment: Internalization in PC3-CXCR4 cells; type: cell-based, human; settings: after 135 min incubation
Protocol: Internalization studies were performed for [^18F]RPS-534 and [^18F]RPS-547 in a time dependent manner. PC3-CXCR4 cells were plated as described above in 12-well plates and incubated for 48 h prior to the experiment. The media was exchanged and [^18F]RPS-534 or [^18F]RPS-547 (10^−5 μM; approximately 400 kBq) was added to each well. All experiments were performed in triplicate. […] Then the media was removed under suction at the corresponding temperature, and the cells washed with 1 mL PBS. Cell surface-bound activity was collected by two successive 5 min incubations of 0.5 mL of a 50 mM glycine buffer (pH = 2.8) performed at 4 °C or 37 °C. The cells were then washed with 1 mL ice-cold PBS and detached with 1 mL ice cold 1 M NaOH. Detached cells were collected and counted along with the washes. An aliquot of the administered radioactivity (10% IA) was also counted and used for quantification. The activity found in the NaOH fractions of the 4 °C plates was subtracted from the activities of the fractions at 37 °C to correct for non-specific binding. Internalized activity was expressed as the fraction of activity in the NaOH fraction relative to the total activity added.

PC3-CXCR4 cells [2] = experiment: Cell-associated activity in PC3-CXCR4 cells; type: cell-based, human; settings: 1 h
Protocol: Maximum cell-associated activity was calculated by subtracting the cell uptake of the radioactive ligand at the highest non-radioactive ligand concentration of 10 µM (which we considered to be non-specific uptake/binding) from the cell uptake at the lowest non-radioactive ligand concentration of 10^−5 µM.

[3] = Biodistribution in mice bearing bilateral PC3-WT/PC3-CXCR4 xenograft tumors; type: in vivo, BALB/c mice
[4] = tested on: PC3-CXCR4 xenograft tumors; experiment: as above; type: in vivo, BALB/c mice
CXCR4 [5] = target: T1, CXCR4 (Homo sapiens, UniProt P61073); experiment: Competition binding assay vs [^68Ga]Pentixafor in PC3-CXCR4 cells; settings: for IC50: vs 100 nM [^68Ga]Pentixafor, PC3-CXCR4 cells, 60 min 37 °C; for Hill Slope, Competitive Binding Experiment: vs [^68Ga]Pentixafor, value ± SD
T1 construct: expressed in transfected cells; host or cells: PC3 (human prostate cancer) cells stably transduced with CXCR4
Procedure, shortened: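 PC3-CXCR4 cells were incubated 60 min at 37 °C with tracer ([^68Ga]Pentixafor at 100 nM or [^18F]RPS-544 at ~5 pM) plus unlabelled ligand at eight concentrations (0.001–10,000 nM). Cell-bound activity was gamma-counted after washing. Non-specific binding was subtracted and IC50 was fitted to a sigmoidal Hill model assuming simple competition.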

CXCR4 [6] = target: T1, CXCR4; experiment: Competition binding assay vs [^18F]RPS-544 in PC3-CXCR4 cells; settings: approx. 5 pM [^18F]RPS-544; p = 0.85
Protocol: PC3-CXCR4 cells were plated in 12-well plates at a density of 500,000 cells per well and incubated for 48 h at 37 °C/5% CO2. Prior to the binding assay the cells were incubated in fresh media and 370–555 kBq of [^68Ga]Pentixafor or [^18F]RPS-544 was added to each well. The corresponding concentration of [^68Ga]Pentixafor in each well was 100 nM, and the concentration of [^18F]RPS-544 was approximately 5 pM. Then non-radioactive ligands were added to give a final ligand concentration in the range 0.001–10,000 nM. A total of eight concentrations were studied, and each concentration was tested in triplicate. The cells were incubated for 60 min at 37 °C/5% CO2. The media was removed under suction, the cells were washed with cold PBS 1X and detached and transferred to tubes for counting in 1 M NaOH. The cells were counted in a Wizard^2 Gamma Counter (PerkinElmer, Waltham, MA, USA). Non-specific binding was subtracted, and the IC50 values were determined by assuming a simple competitive binding interaction and fitting the data to a sigmoidal Hill plot in Origin 9.0 (OriginLab, Northampton, MA, USA). Potencies are expressed as IC50 ± standard deviation (Supplemental Data, Figure S7).

CXCR4 [7] = target: T1, CXCR4; experiment: Saturation binding assay in PC3-CXCR4 cells; settings: for Kd: saturation binding, PC3-CXCR4 cells; for Hill Slope, Saturation Binding Experiment: value ± SD
Procedure, shortened: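 PC3 cells expressing CXCR4 incubated with ~5 nM radioligand plus matching unlabelled ligand at eight final concentrations, 0.001–10,000 nM, in triplicate, then washed and counted. Kd from a one-site nonlinear fit, y = (Bmax · x)/(Kd + x), after non-specific binding subtraction; reported ± SD.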

[8] = tested on: PC3-CXCR4 xenograft tumors; experiment: µPET/CT titration of tumor uptake by co-injection of AMD-3100 (block50); type: in vivo, BALB/c mice; settings: co-injection of AMD-3100, µPET/CT 1 h p.i.; listed as [^18F]RPS-544
Protocol: All animal studies were approved by the Institutional Animal Care and Use Committee of Weill Cornell Medicine (Protocol Number: 2015-0066) and were undertaken in accordance with the guidelines set forth by the USPHS Policy on Humane Care and Use of Laboratory Animals. Animals were housed under standard conditions in approved facilities with 12 h light/dark cycles. Food and water was provided ad libitum throughout the course of the studies. Hairless 6-to-8-week old male BALB/c inbred athymic nude mice (Jackson Laboratory, Bar Harbor, ME, USA) were inoculated bilaterally with 0.2 mL of a 1:1 mixture of 10^7 PC3-CXCR4 cells in PBS and Matrigel (Corning, Tewksbury, MA, USA) subcutaneously in the left shoulder and 0.2 mL of a 1:1 mixture of 10^7 PC3-WT cells in PBS and Matrigel subcutaneously in the right shoulder. […]
For the imaging studies, the tumor-bearing mice (n = 2/compound) were injected intravenously with 100 μL of a 9% v/v EtOH/saline solution containing approximately 3.7 MBq of the radioligand. […] Tumor uptake was quantified by the following procedure: CT-aided regions of interest were drawn, and tissue concentration was determined by comparison with a 3 %ID/cm^3 standard included in the field of view. Uptake was expressed as percent injected dose per centimeter cubed (%ID/cm^3) ± standard deviation.

[9] = tested on: PC3-CXCR4 xenograft tumors; design: method as in PMID 29544122; settings: cited from earlier work
[10] = 1 h p.i., blocked by co-injection of 5 mg/kg AMD-3100

T1 sequence (P61073 whole entry): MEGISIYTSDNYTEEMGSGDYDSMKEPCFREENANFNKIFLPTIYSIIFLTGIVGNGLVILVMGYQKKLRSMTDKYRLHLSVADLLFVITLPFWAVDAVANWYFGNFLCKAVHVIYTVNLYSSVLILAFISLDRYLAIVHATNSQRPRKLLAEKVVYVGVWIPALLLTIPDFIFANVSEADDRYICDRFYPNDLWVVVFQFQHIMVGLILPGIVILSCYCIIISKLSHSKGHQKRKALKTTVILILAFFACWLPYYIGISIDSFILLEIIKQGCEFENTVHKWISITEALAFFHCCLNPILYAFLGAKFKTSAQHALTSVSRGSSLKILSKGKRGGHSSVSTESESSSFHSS

- Blood tissue activity ([3]; 1 h p.i.): 0.30±0.08 %ID/g
- Blood tissue activity [3, 10]: 0.26±0.15 %ID/g
- Blood tissue activity ([3]; 2 h p.i.): 0.08±0.02 %ID/g
- Bone tissue activity ([4]; 1 h p.i.): 1.44±0.04 %ID/g
- Heart tissue activity ([4]; 1 h p.i.): 0.25±0.01 %ID/g
- Kidneys tissue activity ([4]; 1 h p.i.): 7.43±0.96 %ID/g
- Large Intestine tissue activity ([4]; 1 h p.i.): 0.29±0.06 %ID/g
- Liver tissue activity ([4]; 1 h p.i.): 19.14 ± 0.42 %ID/g
- Lungs tissue activity ([4]; 1 h p.i.): 1.01±0.09 %ID/g
- Muscle tissue activity ([4]; 1 h p.i.): 0.19±0.03 %ID/g
- PC3-CXCR4 Tumor Uptake ([4]; 1 h p.i.): 7.20 ± 0.30 %ID/g
- PC3-CXCR4 Tumor-to-Tissue Ratio Blood ([4]; 1 h p.i.): 27.5 ± 0.4
- PC3-CXCR4 Tumor-to-Tissue Ratio Bone ([4]; 1 h p.i.): 5.7 ± 0.4
- PC3-CXCR4 Tumor-to-Tissue Ratio Kidneys ([4]; 1 h p.i.): 1.1 ± 0.4
- PC3-CXCR4 Tumor-to-Tissue Ratio Liver ([4]; 1 h p.i.): 0.4 ± 0.2
- PC3-CXCR4 Tumor-to-Tissue Ratio Lungs ([4]; 1 h p.i.): 8.0 ± 0.4
- PC3-CXCR4 Tumor-to-Tissue Ratio Muscle ([4]; 1 h p.i.): 42.4 ± 0.1
- PC3-CXCR4 Tumor-to-Tissue Ratio PC3-WT ([4]; 1 h p.i.): 2.5 ± 0.4
- PC3-WT tumor activity ([4]; 1 h p.i.): 2.85±0.22 %ID/g
- Pancreas tissue activity ([4]; 1 h p.i.): 0.28±0.02 %ID/g
- Small Intestine tissue activity ([4]; 1 h p.i.): 3.67±0.44 %ID/g
- Spleen tissue activity ([4]; 1 h p.i.): 2.49±0.04 %ID/g
- Stomach tissue activity ([4]; 1 h p.i.): 0.16±0.03 %ID/g
- Bone tissue activity [4, 10]: 0.44±0.15 %ID/g
- Heart tissue activity [4, 10]: 0.13±0.04 %ID/g
- Kidneys tissue activity [4, 10]: 5.10±0.33 %ID/g
- Large Intestine tissue activity [4, 10]: 0.40±0.58 %ID/g
- Liver tissue activity [4, 10]: 12.01 ± 4.67 %ID/g
- Lungs tissue activity [4, 10]: 0.48±0.08 %ID/g
- Muscle tissue activity [4, 10]: 0.17±0.16 %ID/g
- PC3-CXCR4 tumor activity [4, 10]: 2.01±0.93 %ID/g
- PC3-WT tumor activity [4, 10]: 1.21±0.47 %ID/g
- Pancreas tissue activity [4, 10]: 0.32±0.01 %ID/g
- Small Intestine tissue activity [4, 10]: 5.35±1.74 %ID/g
- Spleen tissue activity [4, 10]: 0.12±0.03 %ID/g
- Stomach tissue activity [4, 10]: 0.14±0.11 %ID/g
- Bone tissue activity ([4]; 2 h p.i.): 1.26±0.06 %ID/g
- Heart tissue activity ([4]; 2 h p.i.): 0.14±0.02 %ID/g
- Kidneys tissue activity ([4]; 2 h p.i.): 5.05±0.80 %ID/g
- Large Intestine tissue activity ([4]; 2 h p.i.): 4.60±0.57 %ID/g
- Liver tissue activity ([4]; 2 h p.i.): 18.60±1.74 %ID/g
- Lungs tissue activity ([4]; 2 h p.i.): 0.59±0.03 %ID/g
- Muscle tissue activity ([4]; 2 h p.i.): 0.11±0.03 %ID/g
- PC3-CXCR4 Tumor-to-Tissue Ratio Blood ([4]; 2 h p.i.): 51.1 ± 0.2
- PC3-CXCR4 Tumor-to-Tissue Ratio Bone ([4]; 2 h p.i.): 3.5 ± 0.2
- PC3-CXCR4 Tumor-to-Tissue Ratio Kidneys ([4]; 2 h p.i.): 0.9 ± 0.2
- PC3-CXCR4 Tumor-to-Tissue Ratio Liver ([4]; 2 h p.i.): 0.2 ± 0.1
- PC3-CXCR4 Tumor-to-Tissue Ratio Lungs ([4]; 2 h p.i.): 7.1 ± 0.2
- PC3-CXCR4 Tumor-to-Tissue Ratio Muscle ([4]; 2 h p.i.): 38.8 ± 0.2
- PC3-CXCR4 Tumor-to-Tissue Ratio PC3-WT ([4]; 2 h p.i.): 2.5 ± 0.2
- PC3-CXCR4 tumor activity ([4]; 2 h p.i.): 4.31±0.47 %ID/g
- PC3-WT tumor activity ([4]; 2 h p.i.): 1.66±0.08 %ID/g
- Pancreas tissue activity ([4]; 2 h p.i.): 0.18±0.06 %ID/g
- Small Intestine tissue activity ([4]; 2 h p.i.): 1.53±0.25 %ID/g
- Spleen tissue activity ([4]; 2 h p.i.): 1.90±0.23 %ID/g
- Stomach tissue activity ([4]; 2 h p.i.): 0.12±0.05 %ID/g
- PC3-CXCR4 tumor uptake relative to [^18F]RPS-544 ([4]; mouse, in vivo): 2 fold
- tumor-to-heart ratio ([4]; time not restated, follows the 1 h p.i. tumor-to-blood ratio): 28.8 ± 0.3
- decrease in affinity relative to RPS-544 (CXCR4 [5]): 30 fold
- IC50 (CXCR4 [5]): 218 ± 38 nM
- Hill Slope, Competitive Binding Experiment (CXCR4 [5]): 1.15 ± 0.34
- IC50 vs [^18F]RPS-544 compared with IC50 vs [^68Ga]Pentixafor (CXCR4 [6]): not significantly different
- Kd (CXCR4 [7]): 176 ± 30 nM
- Hill Slope, Saturation Binding Experiment (CXCR4 [7]): 1.05 ± 0.15
Structure (SMILES): FCCn1cc(-c2cc(CN3CCCNCCNCCCNCC3)ccc2CNCc2ccccn2)nn1 [RPS-534]
- internalized activity (PC3-CXCR4 cells [1]): approximately 2 %IA
- internalized share of total cell-associated activity (PC3-CXCR4 cells [1]): approximately 7%
- Cell-Associated Activity (PC3-CXCR4 cells [2]): 18.5 ± 3.7 %IA
- reduction of tumor activity by blocking ([4]; blocking dose 5 mg/kg AMD-3100): approximately 70%

- IC50 (CXCR4 [5]): 6.3 ± 0.8 nM
- Hill Slope, Competitive Binding Experiment (CXCR4 [5]): 1.13 ± 0.47
- Kd (CXCR4 [7]): 5.1 ± 1 nM
- Hill Slope, Saturation Binding Experiment (CXCR4 [7]): 1.06 ± 0.11
Structure (SMILES): Fc1cccc(CNCc2ccc(CN3CCCNCCNCCCNCC3)cc2)n1 [RPS-544]
- Block50: dose of AMD-3100 reducing uptake in PC3-CXCR4 tumors by 50% [8]: 0.17 ± 0.06 mg/kg
- Cell-Associated Activity (PC3-CXCR4 cells [2]): 8.2 ± 0.3 %IA
- PC3-CXCR4 Tumor-to-Tissue Ratio Blood ([9]; 1 h p.i.): 2.5 ± 0.4
- PC3-CXCR4 Tumor-to-Tissue Ratio Bone ([9]; 1 h p.i.): 4.2 ± 1.2
- PC3-CXCR4 Tumor-to-Tissue Ratio Kidneys ([9]; 1 h p.i.): 0.1 ± 0.1
- PC3-CXCR4 Tumor-to-Tissue Ratio Liver ([9]; 1 h p.i.): 0.1 ± 0.1
- PC3-CXCR4 Tumor-to-Tissue Ratio Lungs ([9]; 1 h p.i.): 2.0 ± 1.2
- PC3-CXCR4 Tumor-to-Tissue Ratio Muscle ([9]; 1 h p.i.): 11.1 ± 0.4
- PC3-CXCR4 Tumor-to-Tissue Ratio PC3-WT ([9]; 1 h p.i.): 3.3 ± 1.3
- PC3-CXCR4 Tumor Uptake ([9]; 1 h p.i., previously published data): 3.4 ± 1.2 %ID/g
- PC3-CXCR4 Tumor-to-Tissue Ratio Blood ([9]; 2 h p.i.): 4.8 ± 0.1
- PC3-CXCR4 Tumor-to-Tissue Ratio Bone ([9]; 2 h p.i.): 2.9 ± 0.3
- PC3-CXCR4 Tumor-to-Tissue Ratio Kidneys ([9]; 2 h p.i.): 0.1 ± 0.1
- PC3-CXCR4 Tumor-to-Tissue Ratio Liver ([9]; 2 h p.i.): 0.1 ± 0.1
- PC3-CXCR4 Tumor-to-Tissue Ratio Lungs ([9]; 2 h p.i.): 1.7 ± 0.3
- PC3-CXCR4 Tumor-to-Tissue Ratio Muscle ([9]; 2 h p.i.): 6.7 ± 0.2
- PC3-CXCR4 Tumor-to-Tissue Ratio PC3-WT ([9]; 2 h p.i.): 2.6 ± 0.3
